Source: US20180201592A1, “2-AMINO-1,3,4-THIADIAZINE AND 2-AMINO-1,3,4-OXADIAZINE BASED ANTIFUNGAL AGENTS” (F2G Limited, priority 2015, published 2018)

Key:
Conditions in all cases: banded MIC grade
Aspergillus fumigatus = assay: Minimum inhibitory concentration, YAG medium; format: cell-based
Protocol: (§1) Between 1 and 5 mgs of compound were accurately weighed out into a sterile Eppendorf tube. The compound was dissolved in DMSO to give a solution containing 5 mg/mL. Tubes were stored at −20° C. until required.
(§2) On the day of testing thawed solutions were vortex mixed to ensure homogeneity. 30 μL of solution was removed and added to 570 μL of sterile water in a separate sterile Eppendorf. The thoroughly mixed solution was used to prepare a series of doubling dilutions in water, in a deep well plate. Thirteen replicate plates were prepared using a Minitrak by aspirating 20 μL from each well into eleven clear polystyrene 96 well plates.
(§3) Spores of Aspergillus spp. (Aspergillus fumigatus [two strains], Aspergillus terreus [two strains], Aspergillus niger and Aspergillus flavus) were harvested from cultures grown on Sabarauds agar for 5 days, and resuspended in PBS/Tween 80 to approx 1×10^7 cfu/mL. Each organism suspension was diluted in YAG medium (1% glucose, 1% ammonium chloride and 0.5% yeast extract) to 0.5-2×10^4cfu/mL. 80 μL of an organism suspension was added to each well of the plate containing drug dilutions.
(§4) This typically produced MIC plates with a drug range 50-0.05 mg/L and organism inocula of 1-2×10^4 cfu/mL for Aspergillus spp. All plates were incubated for 24 hrs at 35° C. Growth was assessed by monitoring the optical density at 485 nm for each well. The MIC of a compound is the lowest drug concentration that inhibits growth of an organism by >70% compared with a drug free control. MICs are recorded as mg/L. In cases where the MIC of an organism is […] the MIC is repeated using a concentration range of 0.5-0.0005 mg/L.

A. fumigatus 210 = assay: Minimum inhibitory concentration, YAG medium; format: cell-based, Aspergillus fumigatus
Protocol: as §1, §2, §3, §4

A. terreus 49 = assay: Minimum inhibitory concentration, YAG medium; format: cell-based, Aspergillus terreus
Protocol: (§5) The compound was dissolved in DMSO to give a solution containing 5 mg/mL. Tubes were stored at −20° C. until required. On the day of testing thawed solutions were vortex mixed to ensure homogeneity. 30 μL of solution was removed and added to 570 μL of sterile water in a separate sterile Eppendorf. The thoroughly mixed solution was used to prepare a series of doubling dilutions in water, in a deep well plate. Thirteen replicate plates were prepared using a Minitrak by aspirating 20 μL from each well into eleven clear polystyrene 96 well plates. Spores of Aspergillus spp. […] All plates were incubated for 24 hrs at 35° C. Growth was assessed by monitoring the optical density at 485 nm for each well. […] MICs are recorded as mg/L.

Aspergillus flavus = assay: Minimum inhibitory concentration, YAG medium; format: cell-based
Protocol: as §5

Aspergillus niger = assay: Minimum inhibitory concentration, YAG medium; format: cell-based
Protocol: as §5

Aspergillus terreus = assay: Minimum inhibitory concentration, YAG medium; format: cell-based
Protocol: as §5

C. albicans = assay: Minimum inhibitory concentration, RPMI medium; format: cell-based
Protocol: as §5, with “Assays were also performed in RPMI medium (Roswell Park Memorial Media 1640). To perform MIC tests in this medium, dilutions” for “Spores”, “compounds are prepared in microtitre plates as described above.” for “Aspergillus spp.”, “24-48” for “24”, “The following organisms were tested: […]” for “MICs are recorded as mg/L.”

C. parapsilosis = assay: Minimum inhibitory concentration, RPMI medium; format: cell-based
Protocol: as §5, with “Assays were also performed in RPMI medium (Roswell Park Memorial Media 1640). To perform MIC tests in this medium, dilutions” for “Spores”, “compounds are prepared in microtitre plates as described above.” for “Aspergillus spp.”, “24-48” for “24”, “The following organisms were tested: […]” for “MICs are recorded as mg/L.”

C. tropicalis = assay: Minimum inhibitory concentration, RPMI medium; format: cell-based
Protocol: as §5, with “Assays were also performed in RPMI medium (Roswell Park Memorial Media 1640). To perform MIC tests in this medium, dilutions” for “Spores”, “compounds are prepared in microtitre plates as described above.” for “Aspergillus spp.”, “24-48” for “24”, “The following organisms were tested: […]” for “MICs are recorded as mg/L.”

Structure (SMILES) | MIC grade, A. FUMIGATUS, YAG media (Aspergillus fumigatus) | MIC grade, A. FUMIGATUS 210, YAG media (A. fumigatus 210) | MIC grade, A. TERREUS 49, YAG media (A. terreus 49) | MIC grade, A. FLAVUS, YAG media (Aspergillus flavus) | MIC grade, A. NIGER, YAG media (Aspergillus niger) | MIC grade, A. TERREUS, YAG media (Aspergillus terreus) | MIC grade, C. ALBICANS, RPMI media (C. albicans) | MIC grade, C. PARAPSILOSIS, RPMI media (C. parapsilosis) | MIC grade, C. TROPICALIS, RPMI media (C. tropicalis)
CCCCOc1cccc(C2=NN=C(N)SC2)c1 | 1 (1: ≥5 mg/L) | 1 (1: ≥5 mg/L) | 1 (1: ≥5 mg/L) | 1 (1: ≥5 mg/L) | 1 (1: ≥5 mg/L) | 1 (1: ≥5 mg/L) | 1 (1: ≥20 mg/L) | 1 (1: ≥20 mg/L) | 1 (1: ≥20 mg/L)
COCCCC1=NN=C(N)SC1 | 4 (4: <0.2 mg/L) | 4 (4: <0.2 mg/L) | 4 (4: <0.2 mg/L) | 4 (4: <0.2 mg/L) | 4 (4: <0.2 mg/L) | 3 (3: 0.2-1 mg/L) | 3 (3: 1-5 mg/L) | 3 (3: 1-5 mg/L) | 2 (2: 5-20 mg/L)
NC1=NN=C(c2ccc(Cl)c(Cl)c2)CS1 | 1 (1: ≥5 mg/L) | 1 (1: ≥5 mg/L) | 1 (1: ≥5 mg/L) | 1 (1: ≥5 mg/L) | 2 (2: 1-5 mg/L) | 1 (1: ≥5 mg/L) | 1 (1: ≥20 mg/L) | 1 (1: ≥20 mg/L) | 1 (1: ≥20 mg/L)
Cc1cc(C)cc(C2=NN=C(N)SC2)c1 | 1 (1: ≥5 mg/L) | 2 (2: 1-5 mg/L) | 1 (1: ≥5 mg/L) | 1 (1: ≥5 mg/L) | 2 (2: 1-5 mg/L) | 1 (1: ≥5 mg/L) | 1 (1: ≥20 mg/L) | 1 (1: ≥20 mg/L) | 1 (1: ≥20 mg/L)
CCCCOc1ccc(C2=NN=C(N)SC2)cc1 | 3 (3: 0.2-1 mg/L) | 3 (3: 0.2-1 mg/L) | 1 (1: ≥5 mg/L) | 3 (3: 0.2-1 mg/L) | 3 (3: 0.2-1 mg/L) | 3 (3: 0.2-1 mg/L) | 1 (1: ≥20 mg/L) | 1 (1: ≥20 mg/L) | 1 (1: ≥20 mg/L)
COCCCCCC1=NN=C(N)SC1 | 4 (4: <0.2 mg/L) | 4 (4: <0.2 mg/L) | 4 (4: <0.2 mg/L) | 4 (4: <0.2 mg/L) | 4 (4: <0.2 mg/L) | 4 (4: <0.2 mg/L) | 4 (4: <1 mg/L) | 4 (4: <1 mg/L) | 3 (3: 1-5 mg/L)
CCOC(=O)c1cccc(C2=NN=C(N)SC2)c1 | 1 (1: ≥5 mg/L) | 1 (1: ≥5 mg/L) | 1 (1: ≥5 mg/L) | 1 (1: ≥5 mg/L) | 1 (1: ≥5 mg/L) | 1 (1: ≥5 mg/L) | 1 (1: ≥20 mg/L) | 1 (1: ≥20 mg/L) | 1 (1: ≥20 mg/L)
CCOC(=O)c1ccc(C2=CSC(N)=NN2)cc1 | 4 (4: <0.2 mg/L) | 4 (4: <0.2 mg/L) | 3 (3: 0.2-1 mg/L) | 4 (4: <0.2 mg/L) | 4 (4: <0.2 mg/L) | 4 (4: <0.2 mg/L) | 3 (3: 1-5 mg/L) | 4 (4: <1 mg/L) | 2 (2: 5-20 mg/L)
